In patent US12662521B2, “Engineered osteocalcins for treating sarcopenia” (The Trustees of Columbia University in the City of New York, priority 2020, dated 2026):
“Also recorded” adds a separate entry of the source. Like-named read-outs stand apart in the source and are kept apart here.

Key:
[1] = Table 1, drugs developed to target muscle mass; cited from earlier work
[2] = system: dexamethasone-treated mice; details: for running capacity / exercise / Muscle mass: dexamethasone-treated mice; for Muscle mass: oxidative, glycolytic and mixed muscles
Text: It was also further examined whether an osteocalcin treatment might preserve muscle function and/or muscle mass in a clinically relevant mouse model of sarcopenia.
FIG. 9A and FIG. 9B show exemplary graphs pf exemplary modeling sarcopenia in mice.

Liver Factor 1 = Liver Factor 1 production during exercise; format: in vivo; details: FIG. 7
Text: OCN signaling in the liver is required for exercise capacity (see FIG. 6). OCN enhances Liver Factor 1 production during exercise (see FIG. 7). Liver Factor 1 mediates OCN regulation of exercise capacity (see FIG. 8).

Dexamethasone mice = experiment: another recognized model of sarcopenia: dexamethasone delivered by pumps for 28 days, muscle mass and treadmill running; format: in vivo; set-up: dose or concentration left out as unconfirmed; details: dexamethasone by pumps for 28 days; osteocalcin also by pumps
young and older mice [3] = experiment: exercise capacity of young and older mice given exogenous osteocalcin; format: in vivo; details: FIG. 1
Text: Exemplary data showing that osteocalcin signaling in myofibers favors adaptation to exercise because it increases uptake and utilization of glucose into the tricarboxylic acid cycle and promotes fatty acids utilization are included in International Patent Application Publication WO 2016/081728, the disclosure of which is incorporated herein by reference. Osteocalcin signaling in myofibers is also the main determinant of the exercise-induced upregulation of Interleukin-6, a myokine that favors the generation of bioactive osteocalcin and of nutrients made available for myofibers. Furthermore, circulating osteocalcin levels decline steeply before mid-life and increase less during exercise in older than in younger mice. […] Thus, there is an osteocalcin-interleukin-6 axis that can be necessary to enhance muscle function during exercise and can be harnessed to reverse age-induced decline in exercise capacity.
Exemplary data showing that, by signaling in myofibers, osteocalcin favors adaptation to exercise because it promotes glucose uptake and utilization in the tricarboxylic acid (TCA) cycle as well as utilization of FAs are also included in International Patent Application Publication WO 2016/081728, the disclosure of which is incorporated herein by reference. […]

[4] = system: mice that received dexamethasone; experiment: deleterious effect of dexamethasone on muscle function, osteocalcin given concomitantly or after two weeks of dexamethasone; format: in vivo
young and older mice [5] = details: exogenous osteocalcin, data of WO 2016/081728, cited from earlier work

CN(C)N(C)C(=O)[C@@]1(Cc2ccccc2)CCCN(C(=O)[C@@H](Cc2c[nH]c3ccccc23)NC(=O)C(C)(C)N)C1 [Anamorelin, reference compound]
Muscle mass [1]: ✓

N#Cc1ccc(N2CCC[C@@H]2[C@@H](O)C(F)(F)F)cc1C(F)(F)F [VK5211, reference compound]
running capacity / exercise [2]: only had a modest effect | Muscle mass [2]: fully restored muscle mass to normal levels | Muscle mass [1]: ✓

C[C@H](Nc1ccc(C#N)c(Cl)c1Cl)C(C)(C)O [GSK2849466, reference compound]
Muscle mass [1]: ✓

C[C@@H]1C[C@H]2[C@@H]3CCC4=CC(=O)C=C[C@]4(C)[C@@]3(F)[C@@H](O)C[C@]2(C)[C@@]1(O)C(=O)CO [dexamethasone, reference compound]
decrease of circulating lymphocyte counts ([2]; after dexamethasone treatment): 50% | diminution of gastrocnemius muscle mass ([2]; mouse, in vivo): 30% | reduction of running capacity ([2]; mouse, in vivo): 50%

C[C@](O)(COc1ccc(C#N)cc1)C(=O)Nc1ccc(C#N)c(C(F)(F)F)c1 [Enbosarm, reference compound]
Muscle mass [1]: ✓

osteocalcin (YLGASVPSPDPLEPTREQCELNPACDELSDQYGLKTAYKRIYGITI; UniProt P86546 50-95, looked up) [a bone-derived hormone]
Liver Factor 1 production during exercise (Liver Factor 1): enhances | safety / negative side-effects (animal models): safe with no recorded negative side-effects | Muscle mass (Dexamethasone mice): lost significantly less muscle mass | exercise capacity (ability to run on a treadmill) (Dexamethasone mice): normal exercise capacity | performance compared with VK5211 ([2]; Dex-induced sarcopenia): outperforms | IL-6 in Dex-induced sarcopenia ([2]; FIG. 12): favors IL-6 | running capacity / exercise [2]: fully rescued the running capacity | Muscle mass ([2]; listed as OCN): marginal effect | DEX toxicity ([2]; mouse, in vivo): does not interfere | dexamethasone-induced immune suppression (circulating lymphocyte counts) ([2]; mouse, in vivo): did not interfere with nor did it exacerbate | off-target effects ([2]; mouse, in vivo): no overt off-target effects | age-related decline in exercise (young and older mice [3]): corrects | deleterious effect of dexamethasone on muscle function ([4]; concomitant treatment with osteocalcin, 1 year-old mice): presented | deleterious effect of dexamethasone on muscle function ([4]; osteocalcin administered in mice that had already received dexamethasone for two weeks): partially revert | exercise capacity of older mice (young and older mice [5]; 12 to 15 month-old mice): confers to 15 months-old mice exercise capacity of 3 month-old mice; also recorded: confers to 12 to 15 month-old mice the exercise capacity of 3 month-old mice | exercise capacity of young mice (young and older mice [5]): increases the exercise capacity

B1: BYM338: Myostatin inhibitor, Novartis (antibody, chains of the INN, looked up, V domains shown)
VH: QVQLVQSGAEVKKPGASVKVSCKASGYTFTSSYINWVRQAPGQGLEWMGTINPVSGSTSYAQKFQGRVTMTRDTSISTAYMELSRLRSDDTAVYYCARGGWFDYWGQGTLVTVSS
VL: QSALTQPASVSGSPGQSITISCTGTSSDVGSYNYVNWYQQHPGKAPKLMIYGVSKRPSGVSNRFSGSKSGNTASLTISGLQAEDEADYYCGTFAGGSYYGVFGGGTKLTVL
Muscle mass [1]: ✓

B2: PF-06252616: Myostatin inhibitor, Pfizer (antibody, chains of the INN, looked up, V domains shown)
VH: EVQLLESGGGLVQPGGSLRLSCAASGFTFSSYAMSWVRQAPGKGLEWVSTISSGGSYTSYPDSVKGRFTISRDNSKNTLYLQMNSLRAEDTAVYYCAKQDYAMNYWGQGTLVTVSS
VL: DIQMTQSPSSLSASVGDRVTITCKASQDVSTAVAWYQQKPGKAPKLLIYSASYRYTGVPSRFSGSGSGTDFTLTISSLQPEDFATYYCQQHYSTPWTFGGGTKVEIK
Muscle mass [1]: ✓

B3: LY2495655: Myostatin inhibitor, Eli Lilly (antibody, chains of the INN, looked up, V domains shown)
VH: EVQLVESGGGLVQPGGSLRLSCAASGLTFSRYPMSWVRQAPGKGLVWVSAITSSGGSTYYSDTVKGRFTISRDNAKNTLYLQMNSLRAEDTAVYYCARLPDYWGQGTLVTVSS
VL: EIVLTQSPGTLSLSPGERATLSCRASSSVSSSYLHWYQQKPGQAPRLLIYSTSNLVAGIPDRFSGSGSGTDFTLTISRLEPEDFAVYYCQHHSGYHFTFGGGTKVEIK
Muscle mass [1]: ✓

B4: REGN1033: Myostatin inhibitor, Regeneron (antibody, chains of the INN, looked up, V domains shown)
VH: EVQVLESGGDLVQPGGSLRLSCAASGFTFSAYAMTWVRQAPGKGLEWVSAISGSGGSAYYADSVKGRFTISRDNSKNTVYLQMNSLRAEDTAVYYCAKDGAWKMSGLDVWGQGTTVIVSS
VL: DIQMTQSPASLSASVGDRVTITCRASQDISDYLAWYQQKPGKIPRLLIYTTSTLQSGVPSRFRGSGSGTDFTLTISSLQPEDVATYYCQKYDSAPLTFGGGTKVEIK
Muscle mass [1]: ✓
